According to patent EP0840781B1, “METHODS AND DEVICES FOR THE REMOVAL OF PSORALENS FROM BLOOD PRODUCTS” (Cerus Corporation, priority 1995, dated 1996):

How the values were obtained:
Type in all cases: cell-based
[1] = system: Pseudomonas; assay: Bacterial inactivation by compound plus UVA, colony forming units; settings: 16 µM; 5 J/cm^2 irradiation; starting titer 6.5 logs
Experimental: In this example bacterial inactivation by the photoreactive nucleic acid binding compounds described herein was measured as a function of the ability of the bacteria to subsequently replicate. A gram negative bacteria was chosen as representative of the more difficult bacterial strains to inactivate.
The bacteria a strain of Pseudomonas, was inoculated into LB with a sterile loop and grown overnight in a shaker at 37°C. Based on the approximation that one OD at 610 nm is equivalent to 5 x 10^8 colony forming units (cfu)/mL, a 1:10 dilution of the culture was measured on a spectrophotometer. (manufactured by Shimatsu). The bacterial culture was added to a solution of 15% fetal bovine serum in DMEM to a final bacteria concentration of approximately 10^6/mL. An aliquot (0.8 mL) was transferred to a 1.5 mL snap-top polyethylene tube. An aliquot (0.004-0.040 mL) of the test compound stock solution prepared in water, ethanol or dimethylsulfoxide at 0.80-8.0 mM was added to the tube. Compounds were tested at a concentration of 16 µM. The tubes were placed in a light device as described in EXAMPLE I and irradiated with 1.3 J/cm^2, 1.2 J/cm^2, and finally 2.5 J/cm^2, for a total of 5 J/cm^2. 150 µL were removed for testing after each pulse period. Sterile 13 mL dilution tubes were prepared; each test compound required one tube with 0.4 mL of LB broth and four tubes containing 0.5 mL of LB broth. To make the dilutions, a 0.050 mL aliquot of the irradiated solution of phage and test compound was added to the first dilution tube of […] of media then 0.050 mL of this solution was added to the second tube of 0.5 mL medium (1:10). The second solution was then diluted serially (1:10) into the remaining tubes. 100 µL of the original sample and each dilution are plated separately onto LB agar plates and incubated at 37 °C overnight. The colony forming units were then counted the following morning and the titer of the phage remaining after phototreatment was calculated based on the dilution factors.
The following controls were run: the "bacteria only" in which bacteria was not treated with test compound and not irradiated (listed as "starting titer" in the tables below); the "UV only" in which the bacteria was irradiated in the absence of test compound. Dark controls were not performed here for reasons set forth in Example 12 above.

[2] = system: H9 cells chronically infected with HIVIIIB; assay: Inactivation of cell-associated HIV in platelet concentrate, HIV microplaque assay; settings: 150 µM in platelet concentrate; for logs of HIV inactivated (cell-associated): 3 Joules/cm^2, starting log titer 6.1 (Compound 2) or 6.6 (Compound 18); for log inactivation of HIV, dark control: no UVA
Experimental: H9 cells chronically infected with HIVIIIB were used. (H9/HTLV-III-B NIH 1983 Cat.#400). Cultures of these cells were maintained in high glucose Dulbecco Modified Eagle Medium supplemented with 2 mM L-glutamine, 200 u/mL penicillin, 200 µg/ml streptomycin, and 9% fetal bovine serum (Intergen Company, Purchase, N.Y.) For maintenance, the culture was split once a week, to a density of 3 x 10^5 to 4 x 10^5 cells/ml and about four days after splitting, 3.3% sodium bicarbonate was added as needed. For the inactivation procedure, the cells were used three days after they were split. They were pelleted from their culture medium at 400 g x 10 minutes, the supernatant was discarded, and the cells were resuspended in one to five day old human platelet concentrate (PC) (pH 7.5-6.5), to a concentration of 2 x 10^6 cells/ml. Aliquots of the PC-infected cell suspension were made for psoralen free dark controls, for psoralen free UVA only controls, for psoralen dark controls, and for the psoralen plus UVA experimental sample. Concentrated filter-sterilized stock solutions of each psoralen in water were diluted into the appropriate aliquots to yield a final concentration of 150 µM. […] After an equilibration period of thirty minutes at room temperature, 0.5 ml of each of the dark controls was placed in a cryovial and stored in the dark at -80° C. For UVA illumination, 8 ml of the psoralen free aliquot and 8 ml of each psoralen containing aliquot were introduced into a modified F1 20 Teflon™ bag (modified to be 92 cm^2 total surface area. The West Co., Phoenixvill, PA) via a plastic disposable 10 ml syringe attached to one of the polypropylne ports on the bag. This gave an average path length of 0.17 cm. The bags were then illuminated for a total exposure of 3 Joules/cm^2 in the device described in Example 1, above, attached to a circulating refrigerating water bath set at 4° C. which maintains the temperature in the bag at approximately 22-25° C. During exposure, the device was shaken on a platelet shaker (Helmer Labs, Noblesville, IN). After exposure, the contents of the bags were withdrawn by a fresh syringe through the remaining unused port on the bag, and placed in cryovials for storage in the dark at […] until analysis.
Clot removal from each sample was performed before plating.

[3] = system: R17; assay: r-17 bacteriophage assay: R17 treated with compound and UVA, remaining titer by plaque count on Hfr 3000 bacteria; settings: for R17 inactivation efficiency compared with AMT: varying concentration (Tables 7 and 8, FIGS. 6-10)
Experimental: In the r-17 assay, the bacteriophage was placed in a solution with each compound tested and was then irradiated. The ability of the phage to subsequently infect bacteria and inhibit their growth was measured. The bacteriophage was selected for its relatively accessible nucleic acid such that the culture growth inhibition would accurately reflect nucleic acid damage by the test compounds. The bacteriophage assay for nucleic acid binding to test compounds offers a safe and inexpensive procedure to identify compounds likely to display efficient pathogen inactivation. Previous experiments support that the r-17 assay accurately measures HIV-1 sensitivity to similar compounds. […] Modified Eagles Medium (DMEM) to a final phage concentration of 10^9/mL. An aliquot (0.5 mL) was transferred to a 1.5 mL snap-top polyethylene tube. […] Louis, MO). The tubes were placed in a light device as described in EXAMPLE 1 and irradiated for between 1 and 10 minutes. […] To make the dilutions. a 0.100 mL aliquot of the irradiated solution of phage and test compound was added to the first dilution tube of 0.4 mL of media then 0.020 mL of this solution was added to the second tube of 0.5 mL medium (1:25). […] After the top agar hardened, the plates were incubated at 37 °C overnight. The plaque forming units were then counted the following morning and the titer of the phage remaining after phototreatment was calculated based on the dilution factors. The following controls were run: the "phage only" in which phage was not treated with test compound and not irradiated (listed as "starting titer" in the tables below); the "UV only" in which the phage was irradiated in the absence of test compound; and the "dark" control in which the phage/test compound solution was not irradiated before it was diluted and plated. Compounds described herein were also tested at a constant concentration for varying doses of UV light. […] The compound tested was added at the desired concentration and the samples were vortexed. […] Between each 1.0 J/cm^2 intervals, 100µL was removed from each sample and placed in the first corresponding dilution tube, then five sequential dilutions were performed for each compound tested, at all 3 irradiation doses, as described above in this example. […] The contents of each tube was poured into its own LB plate and the plates were incubated overnight at 37 °C. Plaques were counted by visual inspection the following morning.

[4] = 8 µM, 1 Minute Irradiation, Starting Titer Approx. 7.2 Logs (Table 7)
[5] = 16 µM, 1 Minute Irradiation, Starting Titer Approx. 7.2 Logs (Table 7)
[6] = 32 µM, 1 Minute Irradiation, Starting Titer Approx. 7.2 Logs (Table 7)
[7] = 16 µM, 1 Minute Irradiation, Starting Titer Approx. 7.1 Logs (Table 9)
[8] = 16 µM, 1 Minute irradiation = 1.2 J/cm^2, Starting Titer Approx. 7.1 Logs (Table 8)
[9] = 32 µM, 1 Minute irradiation = 1.2 J/cm^2, Starting Titer Approx. 7.1 Logs (Table 8)

Compound: Cc1oc2c(C)c3oc(=O)cc(C)c3cc2c1COCCN [Compound 2, 4'-(4-amino-2-oxa)butyl-4,5',8-trimethylpsoralen]
- log kill of bacteria (Pseudomonas) [1]: > 5.5 logs
- logs of HIV inactivated (cell-associated) [2]: > 6.7 logs
- log inactivation of HIV, dark control [2]: 0 logs
- R17 Log Kill [3, 4]: 3.8
- R17 Log Kill [3, 5]: >6.2
- R17 Log Kill [3, 6]: >6.2
- R17 inactivation efficiency compared with AMT [3]: significantly higher inactivation efficiency than does AMT

Compound: Cc1oc2c(C)c3oc(=O)cc(C)c3cc2c1CNCCCCN [Compound 6, 4'-(6-amino-2-aza)hexyl4,5',8-trimethylpsoralen]
- log kill of bacteria (Pseudomonas) [1]: > 5.5 logs
- R17 Log Kill ([3]; 8 µM, 1 Minute Irradiation, Starting Titer Approx. 7.1 Logs (Table 9)): >6
- R17 Log Kill [3, 7]: >6
- R17 Log Kill [3, 8]: 6.1
- R17 Log Kill [3, 9]: >6.1
- R17 Log Kill ([3]; 64 µM, 1 Minute irradiation = 1.2 J/cm^2, Starting Titer Approx. 7.1 Logs (Table 8)): >6.1
- efficiency at inactivating R17 compared with AMT ([3]; constant concentration, varying doses of UV light 1.0-3.0 J/cm^2 (FIGS. 11-17)): more efficient at inactivating R17 than was AMT
- R17 inactivation efficiency compared with AMT [3]: significantly higher inactivation efficiency than does AMT

Compound: Cc1cc(=O)oc2c(C)c3oc(COCCN)c(C)c3cc12 [Compound 18, 5'-(4-amino-2-oxa)butyl-4,4',8-trimethylpsoralen]
- logs of HIV inactivated (cell-associated) [2]: > 7.2 logs
- log inactivation of HIV, dark control [2]: 0 logs

Compound: Cc1oc2c(C)c3oc(=O)cc(C)c3cc2c1CN [AMT, 4'-Aminomethyl-4,5',8-trimethylpsoralen, reference compound]
- log kill of bacteria (Pseudomonas) [1]: 5.2 logs
- R17 Log Kill [3, 4]: 2.7
- R17 Log Kill [3, 7]: >6
- R17 Log Kill [3, 5]: 4.6
- R17 Log Kill [3, 8]: 4.5
- R17 Log Kill ([3]; 32 µM, 1 Minute Irradiation, Starting Titer Approx. 7.1 Logs (Table 9)): >6
- R17 Log Kill [3, 6]: >6.2
- R17 log kill (32 µM) ([3]; 32 µM, 1 Minute Irradiation, Starting Titer Approx. 7.5 Logs (Table 6)): >6.7
- R17 Log Kill [3, 9]: 4.8
